# In ChEMBL document CHEMBL2363022, “Malaria Box Schistosomiasis Screening Data” (2013):
# Experiments:
# Type in all cases: functional
# Parameters in all cases: scale not given here
# [1] = test system: Schistosoma mansoni
# [2] = test system: Schistosoma mansoni; remark: listed apart in the source
# [3] = test system: Schistosoma mansoni; remark: listed apart in the source
Structure (SMILES),Toxicity [1],Toxicity [2],Toxicity [3]
OC(CNCC1CCCO1)Cn1c2ccc(Cl)cc2c2cc(Cl)ccc21 (stereo unspecified),0,0,0
COc1cc2cc(C(=O)Nc3ccccc3)c(N)nc2cc1OC,0,2,0
O=C(Nc1ccc(-c2nc3cc4ccccc4cc3[nH]2)cc1)c1cccc(Br)c1,0,2,0
Oc1ccc(Br)cc1CN1CCN(Cc2ccc(Cl)cc2)CC1,0,0,1
Br.Cc1ccc(C)c(-c2csc(Nc3ccc(C)c(C)c3)n2)c1,1,0,0
Cl.c1ccc2c(NCCCCCCNc3c4c(nc5ccccc35)CCCC4)c3c(nc2c1)CCCC3,4,4,4
CCCN(CCC)CCCNC(=O)c1cc2c(-c3ccc(OC)c(OC)c3)nn(C)c2s1,0,3,0
CC(=O)c1sc(NC(=O)Nc2ccc(C)cc2C)nc1C,0,0,0
O=C(NCC1Cc2cccc(-c3ccncc3)c2O1)c1csc2c1CCCC2 (stereo unspecified),0,0,0
OC(CNC1CCCCC1)Cn1c2ccccc2c2ccccc21 (stereo unspecified),0,0,0
CC1CC(C)CN(C(=O)c2ccc(Cl)cc2Cl)C1 (stereo unspecified),0,0,0
COc1cccc(NC(=O)[C@H](C(C)C)n2c(=O)[nH]c3ccccc3c2=O)c1,0,0,0
CN1CCN(c2c3c(c(C#N)c4nc5ccccc5n24)CCC3)CC1,0,0,0
COc1cc(-c2nc(-c3ccc(Sc4ccccc4)cc3)c(-c3ccccc3)[nH]2)cc(OC)c1O,0,0,0
CCOc1cc(Br)c(C(C)NC(=O)c2cccc(OC)c2)cc1OCC (stereo unspecified),0,0,0
CCN1CCCC1CNc1[nH]cnc2c3cc(Cl)ccc3nc1-2 (stereo unspecified),0,0,0
O=C(Nc1ccc(Cl)c(Cl)c1)Nc1ccc(Cl)c(Cl)c1,3,4,3
CC(=O)Nc1nnc(SCc2c(C)cc(C(C)(C)C)cc2C)s1,0,0,0
O=C(c1ccccc1F)N(Cc1ccc(Cl)cc1)c1ccccn1,0,0,0
COc1ccc(CN2CCCC(C(=O)c3ccc(C(F)(F)F)cc3)C2)c(O)c1 (stereo unspecified),0,0,0
Cc1cc(C)c2c(c1)OCN(Cc1ccccc1Cl)C2,0,2,0
COc1cc(OC)c(N(C)C(=O)c2cc3c(s2)-c2ccccc2S(=O)(=O)C3)cc1Cl,0,0,0
C=CCc1c(C)nc2ccccc2c1O,0,0,0
O=C(Nc1ccc(CN2CCOCC2)cc1)c1ccc(-c2ccc(Br)cc2)o1,0,0,0
Cc1ccc(C)c(Cn2c(N3CCC(C(=O)NCc4cccs4)CC3)nc3ccccc32)c1,0,0,0
O=C(Nc1ccc(Br)cc1)Nc1cccc(Cl)c1,0,3,0
COc1ccc(C2C(C(=O)Nc3cccc(OC)c3)c3ccccc3C(=O)N2C2CCCCC2)cc1 (stereo unspecified),0,0,0
